In patent US20110130346A1, “PEPTIDE CONJUGATES FOR DELVERY OF BIOLOGICALLY ACTIVE COMPOUNDS” (ISIS INNOVATION LIMITED, priority 2008, published 2011):

Assays:
[1] = system: exon and intron 23 of the dystrophin gene; experiment: Example 3: intramuscular glucose-formulated AOs, Western blot of dystrophin; assay type: in vivo, mdx mice
Description: (§1) For intramuscular studies the TA muscle of each experimental mdx mouse was injected with a 40 μl dose of PNA and PNA-peptide conjugates with saline at a final concentration of 125 μg/ml, and the contralateral muscle was injected with saline. For systemic intravenous injections, X μg PNA or PNA-peptide conjugates in 80 μl saline buffer were injected into tail vein of mdx mice at the final dose of 25 mg/kg and 6 mg/kg, respectively. The animals were killed at various time points after injection by CO2 inhalation and tissues were removed and snap-frozen in liquid nitrogen-cooled isopentane and stored at −80° C.
The collected sections were placed in a 1.5 ml polypropylene eppendorf tube (Anachem, UK) on dry ice. […] The supernatant was collected and the protein concentration was quantified by Bradford assay (Sigma, UK). […] The bound primary antibody was detected by horseradish peroxidise-conjugated rabbit anti-mouse IgGs and the ECL Western Blotting Analysis system (Amersham Pharmacia Biosciences, UK). The intensity of the bands obtained from treated mdx muscles was measured by Image J software; the quantification is based on band intensity and area, and is compared with that from normal muscles of C57BL6 mice.

[2] = system: exon and intron 23 of the dystrophin gene; experiment: Example 3: intramuscular injection of glucose-formulated AOs, dystrophin-positive myofibres by immunohistochemistry; assay type: in vivo; conditions: intramuscular into TA, 8 week old mdx mice, two weeks
Description: Here we study a novel delivery glucose formulation by evaluating it via local intramuscular injection into the mdx mouse tibialis anterior (TA) muscle. Initial experiments were performed in 6-8 week old mdx mice (referred to as 8 weeks) by treatment with a single dose of 5 ug of 2′OMePS AO formulated in 5% glucose. In a parallel control study, age-matched control mdx mice were treated with the same AO dose formulated in standard saline buffer.
For intramuscular studies the TA muscle of each experimental mdx mouse was injected with a 40 μl dose of PNA and PNA-peptide conjugates with saline at a final concentration of 125 μg/ml, and the contralateral muscle was injected with saline. […]
(§2) Sections of 8 μm were cut from at least two-thirds of the muscle length of TA, quadriceps, gastrocnemius, biceps, abdominal wall and diaphragm muscles and cardiac muscle at 100 μm intervals. […] The maximum number of dystrophin-positive fibres in one section was counted using the Zeiss AxioVision fluorescence microscope. […] Polyclonal antibodies were detected by goat-anti-rabbit IgGs Alexa Fluro 594 (Molecular Probe, UK). […] Polyclonal antibodies were detected by goat-anti-rabbit IgGs Alexa 594 and the monoclonal antibodies by goat-anti-mouse IgGs Alexa 594 (Molecular Probe, UK). […]

[3] = system: exon and intron 23 of the dystrophin gene; experiment: Example 3: intramuscular glucose-formulated AOs, RT-PCR of exon skipping; assay type: in vivo, mdx mice
Description: Total RNA was extracted from skeletal muscle and heart tissue with Trizol (Invitrogen, UK) and 200 ng of RNA template was used for 20 μl RT-PCR with OneStep RT-PCR kit (Qiagen, UK). The primer sequences for the initial RT-PCR were Exon20Fo 5′-[…]-3′ and Ex26Ro 5′-[…]-3′ for amplification of messenger RNA from exons 20 to 26. The cycle conditions were 95° C. for 30 seconds, 55° C. for 1 minute and 72° C. for 2 minutes for 25 cycles. RT-PCR product (1 μl) was then used as the template for secondary PCR performed in 25 μl with 0.5 U Taq DNA polymerase (Invitrogen, UK). The primer sequences for the second round were Ex20Fi 5′-[…]-3′ and Ex24Ri 5′-[…]-3. The cycle conditions were 95° C. for 1 minute, 57° C. for 1 minute, and 72° C. for 2 min for 25 cycles. The products were examined by electrophoresis on a 2% agarose gel.
as §1, with “The animals were killed at various time points after injection by CO2 inhalation and tissues were removed and snap-frozen in liquid nitrogen-cooled isopentane and stored at −80° C.” left out

[4] = system: exon and intron 23 of the dystrophin gene; experiment: Example 3: intravenous glucose-formulated AOs, dystrophin immunohistochemistry; assay type: in vivo, mdx mice; conditions: single intravenous dose of 25 mg/kg
Description: (§3) Given the dramatic enhancement in AO uptake and exon skipping activity and dystrophin restoration observed following intramuscular delivery of glucose-formulated AO we wished to study whether or not such enhancement could also facilitate improved systemic AO delivery and splice correcting activity. Initially we chose to study whether or not systemic PMO AO delivery was enhanced following glucose formulation. We compared PMO formulated in saline with PMO formulated in either 5% glucose or formulated in glucose at a final concentration of 4.5% and delivered these via a single intravenous dose of 25 mg/kg in mdx mice.
We further studied the intravenous enhancing effects by investigating the effects on a peptide conjugated PMO compound using a well characterised arginine-rich peptide (RXR)4. […]
as §2

[5] = system: exon and intron 23 of the dystrophin gene; experiment: Example 3: intravenous glucose-formulated AOs, RT-PCR of splice correction; assay type: in vivo, mdx mice; conditions: single intravenous dose of 25 mg/kg, various muscle groups
Description: as §3
We further studied the intravenous enhancing effects by investigating the effects on a peptide conjugated PMO compound using a well characterised arginine-rich peptide (RXR)4.
Total RNA was extracted from skeletal muscle and heart tissue with Trizol (Invitrogen, UK) and 200 ng of RNA template was used for 20 μl RT-PCR with OneStep RT-PCR kit (Qiagen, UK). The primer sequences for the initial RT-PCR were Exon20Fo 5′-[…]-3′ and Ex26Ro 5′-[…]-3′ for amplification of messenger RNA from exons 20 to 26. The cycle conditions were 95° C. for 30 seconds, 55° C. for 1 minute and 72° C. for 2 minutes for 25 cycles. RT-PCR product (1 μl) was then used as the template for secondary PCR performed in 25 μl with 0.5 U Taq DNA polymerase (Invitrogen, UK). […]

Substance: 5′-GGCCAAACCTCGGCTTACCTGAAAT-3′ (morpholino backbone, further chemistry not given here) [PMO, neutrally charged PMO AO, M23D, 25 mer]
- dystrophin protein expression on Western blot, glucose versus saline formulation [1]: increased dystrophin protein expression
- dystrophin-positive myofibres, 5% glucose formulation compared with saline formulation [2]: no significant difference
- exon skipping activity at the RNA level, glucose versus saline formulation [3]: enhanced exon skipping activity
- corrected dystrophin-positive fibres, glucose (5% or 4.5%) versus saline formulation [4]: significant enhancements
- dystrophin splice correction at the RNA level, glucose versus saline formulation [5]: enhanced dystrophin splice correction
